# Source: publication PMC4205289, “Triptolide inhibits human immunodeficiency virus type 1 replication by promoting proteasomal degradation of Tat protein” (Retrovirology, 2014)
# Like-named read-outs stand apart in the source and are kept apart here.
# Columns and labels:
# HIV-1 BaL = assay: PBMC antiviral assay, p24 ELISA; format: cell-based; conditions: for EC50: Human immunodeficiency virus 1, BAL, PBMC, 144 h, p24, day 6 post-infection; for selectivity ratio at 6 days: human, read-out: SI (selective index, CC50/EC50)
# Tat protein [1] = system: T1, Tat protein; assay: Western blot of Tat steady-state level in transfected HeLa cells; format: cell-based, HIV-1 NL4-3
# T1 construct: expressed in transfected cells; host or cells: HeLa
# Experimental: (§1) (A) HeLa cells were transfected with pEF1-FLAG-Tat in the presence of increasing concentrations of triptolide. Cells were harvested 48 h post-transfection, and protein expression levels were determined by Western blotting. (B) HeLa cells were transfected either with pEF1-GFP (left) or pEF1-Tat-GFP (right) in the presence of increasing concentrations of triptolide. Cells were harvested 48 h post-transfection, and protein expression levels were determined by Western blotting.
# (§2) Cells were washed with phosphate buffered saline (PBS) and lysed with radio immunoprecipitation assay lysis buffer supplemented with complete mini protease inhibitor cocktail (Roche) at 4°C for 1 h. Proteins from cell lysates were separated by SDS-PAGE and transferred to polyvinylidene difluoride membranes. After overnight incubation with primary antibodies at 4°C, each blot was probed with horseradish peroxidase-conjugated secondary antibody. Immunoreactive signals were detected with an enhanced chemiluminescence substrate (Thermo Scientific) using an AlphaEaseH FC Imaging System (Alpha Innotech Corporation).
# Tat protein [2] = assay: as above; format: cell-based, HIV-1 NL4-3
# Experimental: as §1, §2
# [3] = system: basal HIV-1 LTR transcription; assay: Basal LTR transcription activity in TZM-bl and Jurkat cells; format: cell-based; conditions: tested concentrations (data not shown)
# Experimental: (§3) The effect of the test compounds on HIV-1 LTR promoter activity was evaluated using the luciferase reporter systems in both TZM-bl and Jurkat cells. TZM-bl cells seeded in 96-well plates (2 × 10^4 cells/well) were treated with either 10 ng/mL TNF-α (Sigma-Aldrich) or co-transfected with pEF1-Tat and pRL-TK (for transfection efficiency normalization) using Lipofectamine 2000 (Invitrogen). The cells were then cultured in the presence of various concentrations of the test compounds. After 24 h (TNF-α stimulation) or 48 h (Tat transfection) of incubation, luciferase activity was determined from cell lysates using the StedyGlo reagent (for TNF-α treated cells) or a dual luciferase assay system (Promega, for transfected cells) as recommended by the manufacturer.
# Jurkat cells were seeded in 24-well plates at a density of 2 × 10^5 cells per well. For TNF-α induction, cells were co-transfected with pLTR-Luc and pRL-TK in the presence or absence of the test compounds. Then, the cells were treated with 10 ng/mL TNF-α 36 h post-transfection. After induction for an additional 12 h, luciferase activity was analyzed. For Tat-induced LTR activation, Jurkat cells were co-transfected with pLTR-Luc (or pLTR-Luc-ΔkB), pEF1-Tat and pRL-TK, and cultured in the presence of various concentrations of test compounds for an additional 48 h before the determination of luciferase activity. […]
# [4] = system: Tat-induced HIV-1 LTR activation; assay: HIV-1 LTR-luciferase reporter assay, Tat-induced, TZM-bl cells; format: cell-based; conditions: pEF1-Tat transfection, 48 h
# Experimental: as §3
# HIV-1 proviral DNA = assay: Nested PCR of integrated proviral DNA in infected Jurkat cells; format: cell-based; conditions: HIV-1 NL4-3 MOI 0.5, 12 h post-infection, 118-D-24 50 μM, flavopiridol 20 nM, triptolide 5 nM
# Experimental: The effects of the test compounds on HIV-1 proviral DNA and mRNA synthesis were analyzed by PCR. Jurkat cells were grown in 24-well plates and infected with the HIV-1 NL4-3 strain at an MOI of 0.5, and then test compounds were added at the desired concentrations. After incubation for 12 h, genomic DNA and mRNA from the infected cells were isolated using a Genomic DNA Mini Preparation Kit (Beyotime, China) and TRIzol reagent (Invitrogen Life Technologies), respectively. Nested PCR was used for the amplification of integrated proviral DNA, as previously described. To determine viral mRNA expression levels, 1 μg of RNA was treated with RQ1 RNase-Free DNase (Promega) and reverse transcribed using M-MLV Reverse Transcriptase (Promega) and random primers (Promega). An aliquot of cDNA was used as template for amplification of the HIV-1 Gag region as described elsewhere. […]
# All of the PCR products were visualized on a UV transilluminator in 2% agarose gels stained with ethidium bromide. In preliminary experiments, the exponential range of the PCR amplification curve was determined for all of the PCR products by varying the amount of input DNA and the number of PCR cycles. Based on these experiments, appropriate conditions were chosen to perform semi-quantitative PCRs.
# FLAG-Tat = system: T2, FLAG-Tat; assay: Proteasome inhibition rescue of Tat expression, Western blot, HeLa cells; format: cell-based, HIV-1 NL4-3; conditions: 5 nM triptolide, without MG132
# T2 construct: expressed in transfected cells; host or cells: HeLa
# Experimental: Figure 6 Triptolide reduces Tat protein stability by enhancing proteasomal degradation of Tat. (A) The effect of triptolide on Tat mRNA levels. HeLa cells were transfected with pEF1-Tat in the presence of increasing concentrations of triptolide. Cells were harvested 48 h post-transfection. The steady-state mRNA levels of Tat and GAPDH were examined using semi-quantitative reverse transcription PCR analysis. RT, reverse transcriptase. (B) The effect of triptolide on Tat protein degradation. HeLa cells were transfected with pEF1-FLAG-Tat in the presence of 5 nM triptolide or vehicle (DMSO). At 28 h post-transfection, cells were treated with 20 μg/mL of CHX to arrest protein synthesis. At 0, 1, 2, 3 h post-treatment, cells were harvested to determine protein expression levels using Western blot analysis. (C) The band intensities of FLAG-Tat in panel B were measured, and their natural log values were plotted as a function of time. Results were presented as the mean plus the standard deviations (n = 3). (D) Proteasome inhibition restores Tat protein expression. HeLa cells were transfected with pEF1-FLAG-Tat in the presence or absence of 5 nM triptolide. At 48 h post-transfection, cells were treated with 20 μM of MG132, and cultured for an additional 3 h before harvest. Protein expression levels were determined by Western blot analysis. TEXT PRINTED IN THE PICTURE: (C) DMSO: Half-lives: 2.0 h | (C) Triptolide: Half-lives: 0.4 h
# as §2
# HIV-1 LAI = assay: PBMC antiviral assay, p24 ELISA; format: cell-based; conditions: for EC50: Human immunodeficiency virus 1, PBMC, 144 h, p24, day 6 post-infection; for selectivity ratio at 6 days: human, read-out: SI (selective index, CC50/EC50)
smiles,measurement,setting,value
CC(C)[C@]12O[C@H]1[C@@H]1O[C@]13[C@]1(O[C@H]1C[C@H]1C4=C(CC[C@@]13C)C(=O)OC4)[C@@H]2O [triptolide],EC50,HIV-1 BaL; PBMC donor A,1.4 nM
same,EC50,HIV-1 BaL; PBMC donor B,1.6 nM
same,EC50,HIV-1 BaL; PBMC donor C,1 nM
same,selectivity ratio at 6 days,HIV-1 BaL; PBMC donor A,9
same,selectivity ratio at 6 days,HIV-1 BaL; PBMC donor B,9.6
same,selectivity ratio at 6 days,HIV-1 BaL; PBMC donor C,11.2
same,action on nuclear versus cytoplasmic Tat Δ49–57,"Tat protein [1]; 5 nM triptolide, nuclear/cytoplasmic fractionation, 48 h",only acted on Tat protein accumulated in nucleus
same,effect on Tat mutant with deletion of basic region,"Tat protein [1]; FLAG-Tat Δ49–57, 48 h",partially attenuated
same,steady-state level of Tat protein,"Tat protein [1]; pEF1-FLAG-Tat, 48 h post-transfection, Western blotting",reduced by triptolide in a dose-dependent manner
same,"effect on steady-state level of Tat mutants with deletion of acidic, cysteine or core region","Tat protein [2]; FLAG-tagged deletion mutants, 48 h",completely aborted the activity of triptolide
same,steady level of FLAG-Tat-NES,Tat protein [2]; NES from HIV-1 Rev fused to C-terminus of Tat,remained unchanged
same,FLAG-Tat-SFV expression,Tat protein [2]; basic domain replaced with NLS from SFV capsid,dose-dependently reduced
same,effect on basal LTR transcription activity,[3],did not affect basal LTR transcription activity
same,effect on Tat-induced reporter activity,[4],reduced Tat-induced reporter activity in a dose-dependent fashion
same,effect on proviral DNA formation (integration),HIV-1 proviral DNA,no effect on virus integration
same,Tat protein expression,FLAG-Tat,reduced to undetectable level
same,EC50,HIV-1 LAI; PBMC donor A,1.5 nM
same,EC50,HIV-1 LAI; PBMC donor B,1.2 nM
same,EC50,HIV-1 LAI; PBMC donor C,1.5 nM
same,selectivity ratio at 6 days,HIV-1 LAI; PBMC donor A,8.4
same,selectivity ratio at 6 days,HIV-1 LAI; PBMC donor B,12.8
same,selectivity ratio at 6 days,HIV-1 LAI; PBMC donor C,7.5
